Molecular target: T1, Aquaporin-1 (Homo sapiens, UniProt P29972)
T1 sequence (P29972 whole entry): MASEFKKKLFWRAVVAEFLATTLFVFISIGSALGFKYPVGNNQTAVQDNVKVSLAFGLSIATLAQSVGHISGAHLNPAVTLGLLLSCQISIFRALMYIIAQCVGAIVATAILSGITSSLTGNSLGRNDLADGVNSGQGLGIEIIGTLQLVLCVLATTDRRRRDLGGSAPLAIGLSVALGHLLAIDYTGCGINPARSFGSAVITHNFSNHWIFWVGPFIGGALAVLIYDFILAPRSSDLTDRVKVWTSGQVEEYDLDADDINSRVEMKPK
Experiment: Stopped-flow Assay
Description: Osmotic water permeability was measured at 22-24 °C bymonitoring 90° scattered light intensity at 520 nm wavelength. Measurements were made using a PiStar 180 (Applied Photophysics, UK), with a dead time of 1-2 milliseconds. Thirty minutes prior to the assay, stripped red blood cell ghosts or proteoliposomes containing purified AQP1 and stored in ice were treated with mercuric chloride (50-100 µM; positive control for inhibition) or with the various compounds usually at a concentration of 150 µM. Stock solutions of compounds were in 100% ethanol (for stripped erythrocyte membrane experiments) and in 100% DMSO (for proteoliposome experiments). An inwardly directed osmotic gradient (hyperosmotic shock) was created by mixing the vesicles maintained in Buffer A (50 mM sodium phosphate buffer pH, 100 mM NaCl, 1 mM EDTA, 0.025% sodium azide) with an equal volume of 200 mM mannitol. On the other hand, vesicles preincubated with 200 mM mannitol were mixed with Buffer A to create an outwardly

Row | SMILES | IC50 [µM]
1 | Nc1nc(NC[C@H]2CC[C@H](CNS(=O)(=O)c3ccc4ccccc4c3)CC2)nc2ccccc12 | 3.9
2 | NCC1Cc2cc(F)cc(-c3ccc(Cl)cc3Cl)c2O1 (stereo unspecified) [[7-(2,4-dichlorophenyl)-5-fluoro-2,3-dihydro-1-benzofuran-2-yl]methanamine (Compound 5)] | 15.2
3 | CNCC1Cc2cc(F)cc(-c3ccc(Cl)cc3Cl)c2O1 (stereo unspecified) [{[7-(2,4-dichlorophenyl)-5-fluoro-2,3-dihydro-1-benzofuran-2-yl]methyl}(methyl)amine (Compound 4)] | 9.8

The remaining compounds from weak to strong by IC50, led by results:

Row | IC50 [µM] | SMILES
4 | 29.4 | CNCC1Cc2cc(F)cc(-c3c(Cl)cccc3Cl)c2O1 (stereo unspecified) [{[7-(2,6-dichlorophenyl)-5-fluoro-2,3-dihydro-1-benzofuran-2-yl]methyl}(methyl)amine (Compound 6)]
5 | 5.8 | Nc1nc(NC[C@H]2CC[C@H](CNS(=O)(=O)c3cccc4c(Cl)cccc34)CC2)nc2ccccc12 [5-chloro-N-{[(1r,4r)-4-{[(4-aminoquinazolin-2-yl)amino]methyl}cyclohexyl]methyl}naphthalene-1-sulfonamide (Compound 3)]
6 | 2.7 | Nc1nc(NC[C@H]2CC[C@H](CNS(=O)(=O)c3cccc4ccccc34)CC2)nc2ccccc12 [CGP 71683]

Source: BindingDB's records for doi:10.1111/cbdd.12713 (Novartis Institutes of Biomedical Research Institute, 2016)
